Structures can show the parent of a compound that is named as a salt.
biological target: T1, human hNET (Homo sapiens, UniProt P23975); test: Functional norepinephrine reuptake assay, Procedure B (6,000 cells/well); assay type: cell-based; conditions: not given
T1 construct: expressed in transfected cells; host or cells: MDCK-Net6 (MDCK cells stably transfected with hNET)
Protocol: For screening, 25 μl aliquots of compound solution at a 1 μM or 10 μM final concentration was delivered directly to cells.
For IC50 determinations, stock compounds were prepared at 10 mM from powder. The stock solution was diluted according to compound testing range. […] On the day of assay, 25 μl of compound solution at the specified concentrations were added to the plates containing cells. A DMSO stock of desipramine was prepared at 10 mM in DMSO and diluted for a final concentration of 20 μM to determine the non-specific reuptake.
MDCK-Net6 cells, stably transfected with human hNET (Pacholczyk, 1991), were maintained in growth media [high glucose DMEM (Gibco Cat. 11995), 10% FBS (dialyzed, heat-inactivated, Sigma, dialysed, heat inactivated, Lot# K0922 or equivalent) 1xPen/Strep, and 500 μg/ml G418 (Gibco Cat. 10131)]. Cells were plated at 300,000/T75 flask and cells split twice weekly.
Cells were plated at 50,000 cells/well (Procedure A) or 6,000 cells/well (Procedure B) on day 1 in BD Falcon Microtest 96-well sterile cell culture plates, Optilux White/Clear Bottom TC plate (VWR; # 62406-466 or equivalent) in growth media and maintained in a cell incubator (37° C., 5% CO2). On Day 2, cells were removed from the cell incubator and the growth media is replaced by 200 μl of assay buffer (25 mm HEPES 120 mM NaCL; 5 mM KCl; 2.5 mM CaCl2; 1.2 mM MgSO4; 2 mg/ml glucose (pH 7.4, 37° C.)) containing 0.2 mg/ml ascorbic acid and 1 μM parglyine. For screening, 25 μl of compound in 4% DMSO was added directly to each well and the plate was incubated for 5 minutes (37° C.). […] The reaction is aspirated from the plate and the cells washed with 250 μl of 50 mM Tris Buffer (4° C.). The plates were left to dry for 1 hour. The cells were lysed using 0.25 M NaOH solution then placed on a shake table and vigorously shaken for 10 minutes. After cell lysis, 100 μl of Microscint 20 (PerkinElmer; #87-051101) was added to the plates and the plates were sealed with film tape and replaced on the shake table for a minimum of 10 minutes. The plates were counted in a TopCount counter (PerkinElmer).
% inhibition=[1−((mean cpm test compound wells−mean cpm non-specific wells)/(mean cpm control wells−mean cpm non-specific wells))]×100
For IC50 determination, raw cpm values were generated in a data file from the TopCount counter. The data was organized using the Microsoft Excel and transferred into PRIZM graphing and statistical program, which calculated the estimated IC50 value. Calculation of IC50 values was made using non-linear regression analysis with a sigmoidal dose response with variable slope. The statistical program used wells containing ^3H norepinephrine only as the maximal NE reuptake determinant and wells containing ^3H norepinephrine plus 20 μM desipramine (AHR-9543) as the minimal NE reuptake determinant (non-specific determinant). Estimation of the IC50 value was completed on a log scale and the line was fit between the maximal and minimal NE reuptake values.

T1 sequence (P23975 whole entry): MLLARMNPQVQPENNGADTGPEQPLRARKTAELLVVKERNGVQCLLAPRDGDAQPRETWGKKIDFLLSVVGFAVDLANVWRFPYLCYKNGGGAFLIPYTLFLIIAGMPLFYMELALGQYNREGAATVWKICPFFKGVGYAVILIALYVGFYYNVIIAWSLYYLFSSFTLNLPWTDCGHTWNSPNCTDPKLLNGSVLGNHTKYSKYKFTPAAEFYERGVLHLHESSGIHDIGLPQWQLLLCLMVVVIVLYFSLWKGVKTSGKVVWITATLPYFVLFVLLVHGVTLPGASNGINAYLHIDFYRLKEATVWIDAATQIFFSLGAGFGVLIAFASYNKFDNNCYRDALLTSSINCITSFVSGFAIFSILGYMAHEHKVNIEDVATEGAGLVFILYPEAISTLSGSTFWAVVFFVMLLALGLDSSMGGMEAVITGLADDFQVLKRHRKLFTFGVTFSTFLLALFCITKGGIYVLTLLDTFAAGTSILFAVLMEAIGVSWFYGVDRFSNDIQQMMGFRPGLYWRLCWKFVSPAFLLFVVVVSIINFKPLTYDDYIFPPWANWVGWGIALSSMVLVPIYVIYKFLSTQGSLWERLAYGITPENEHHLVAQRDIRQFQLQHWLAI

Point of comparison: `CNCCC[C@H]1Cc2cc(F)ccc2N(c2c(F)cccc2F)S1(=O)=O` (single isomer, unassigned) [Example 155], IC50 0.025 µM. Against it:
- CNCCC[C@@H]1Cc2cc(F)ccc2N(c2ccccc2F)S1(=O)=O (single isomer, unassigned) [Example 110] — 2.3-fold lower, 0.011 µM

same assay, conditions: MDCK-Net6 cells, 6,000 cells/well, 16 nM 3H-norepinephrine; read-out: Procedure B hNET uptake IC50

Point of comparison: `CNCCCC1Sc2ccccc2N(c2ccc(C)cc2)S1(=O)=O` (stereo not drawn) [Example 63, N-methyl-3-[1-(4-methylphenyl)-2,2-dioxido-1H-2,4,1-benzodithiazin-3-yl]propan-1-amine Hydrochloride], IC50 0.156 µM. Against it:
- CNCCC[C@H]1Cc2cc(F)ccc2N(c2ccccc2Cl)S1(=O)=O (single isomer, unassigned) [Example 158] — within 1.5-fold, 0.145 µM
- O=S1(=O)C(CN2CCNCC2)Oc2ccccc2N1c1ccccc1 (stereo not drawn) [Example 135, 1-phenyl-3-(piperazin-1-ylmethyl)-1H-4,2,1-benzoxathiazine 2,2-dioxide] — within 1.5-fold, 0.165 µM
- CNCCCC1Cc2cc(Cl)ccc2N(c2ccccc2F)S1(=O)=O (stereo not drawn) [Example 175, 3-[6-chloro-1-(2-fluorophenyl)-2,2-dioxido-3,4-dihydro-1H-2,1-benzothiazin-3-yl]-N-methylpropan-1-amine] — 3.7-fold lower, 0.042 µM
- NCCC1Oc2ccccc2N(c2ccccc2)S1(=O)=O (stereo not drawn) [Example 24, 2-(2,2-dioxido-1-phenyl-1H-4,2,1-benzoxathiazin-3-yl)ethanamine] — 3.7-fold higher, 0.583 µM
- CNCC[C@@H](O)[C@@H]1Cc2ccccc2N(c2ccccc2)S1(=O)=O (single isomer, unassigned) [Example 115] — 3.5-fold higher, 0.546 µM
- CNCCC[C@H]1Cc2ccccc2N(c2ccccc2F)S1(=O)=O (single isomer, unassigned) [Example 74, Hydrochloride] — 2.7-fold lower, 0.0585 µM
- CNCCC[C@H]1Cc2ccccc2N(c2ccccc2F)S1(=O)=O (single isomer, unassigned) [Example 90] — 2.6-fold lower, 0.059 µM
- CNCCCC1Cc2cc(F)ccc2N(c2ccc(C)cc2F)S1(=O)=O (racemic) [Example 148, 3-[6-fluoro-1-(2-fluoro-4-methylphenyl)-2,2-dioxido-3,4-dihydro-1H-2,1-benzothiazin-3-yl]-N-methylpropan-1-amine] — 3.1-fold lower, 0.051 µM
- CNCCCC1Sc2ccccc2N(c2cccc(C)c2)S1(=O)=O (stereo not drawn) [Example 60, N-methyl-3-[1-(3-methylphenyl)-2,2-dioxido-1H-2,4,1-benzodithiazin-3-yl]propan-1-amine Hydrochloride] — 3-fold higher, 0.465 µM
- CCNCCC1Oc2ccccc2N(c2ccccc2)S1(=O)=O (stereo not drawn) [Example 23, 2-(2,2-dioxido-1-phenyl-1H-4,2,1-benzoxathiazin-3-yl)-N-ethylethanamine] — 1.6-fold higher, 0.244 µM
- CNCC[C@H]1Oc2ccccc2N(c2ccccc2)S1(=O)=O (single isomer, unassigned) [Example 104] — 1.9-fold higher, 0.302 µM
- CNCCC[C@@H]1Cc2ccccc2N(c2ccccc2F)S1(=O)=O (single isomer, unassigned) [Example 91] — 39-fold lower, 0.004 µM
- CNCCCC1Cc2ccccc2N(c2ccc(F)cc2F)S1(=O)=O (racemic) [Example 99, 3-[1-(2,4-difluorophenyl)-2,2-dioxido-3,4-dihydro-1H-2,1-benzothiazin-3-yl]-N-methylpropan-1-amine] — 2.5-fold lower, 0.062 µM
- CNCCCC1Oc2cc(F)ccc2N(c2ccccc2)S1(=O)=O (stereo not drawn) [Example 46, 3-(6-fluoro-2,2-dioxido-1-phenyl-1H-4,2,1-benzoxathiazin-3-yl)-N-methylpropan-1-amine] — 1.7-fold lower, 0.0927 µM
- CNCCCC1Oc2ccccc2N(c2ccccc2F)S1(=O)=O (stereo not drawn) [Example 92] — 8.2-fold lower, 0.019 µM
- O=S1(=O)C(CCCN2CCNCC2)Oc2ccccc2N1c1ccccc1 (stereo not drawn) [Example 76, 1-phenyl-3-(3-piperazin-1-ylpropyl)-1H-4,2,1-benzoxathiazine2,2-dioxide Dihydrochloride] — 32-fold higher, 5.05 µM
- CNCCCC1Oc2ccc(C)cc2N(c2ccccc2)S1(=O)=O (stereo not drawn) [Example 50, N-methyl-3-(7-methyl-2,2-dioxido-1-phenyl-1H-4,2,1-benzoxathiazin-3-yl)propan-1-amine] — within 1.5-fold, 0.114 µM
- NCC[C@H]1Oc2ccccc2N(c2ccccc2)S1(=O)=O (single isomer, unassigned) [Example 102] — 8.1-fold higher, 1.27 µM
- CNCC[C@@H](O)[C@H]1Cc2ccccc2N(c2ccccc2)S1(=O)=O (single isomer, unassigned) [Example 116] — 1.8-fold lower, 0.085 µM
- CNCCC[C@@H]1Cc2cc(F)ccc2N(c2ccccc2C#N)S1(=O)=O (single isomer, unassigned) [Example 165] — within 1.5-fold, 0.206 µM
- CNCCC[C@@H]1Oc2cc(F)ccc2N(c2ccccc2F)S1(=O)=O (single isomer, unassigned) [Example 130, Hydrochloride] — 3.5-fold lower, 0.045 µM
- CNCCC[C@H]1Cc2cc(Cl)ccc2N(c2ccccc2F)S1(=O)=O (single isomer, unassigned) [Example 176] — 7.8-fold lower, 0.02 µM
- CNCCC[C@@H]1Cc2cc(Cl)ccc2N(c2ccccc2F)S1(=O)=O (single isomer, unassigned) [Example 177] — 3.6-fold lower, 0.043 µM
- CN(C)CC1Oc2ccccc2N(c2ccccc2)S1(=O)=O (stereo not drawn) [Example 134, 1-(2,2-dioxido-1-phenyl-1H-4,2,1-benzoxathiazin-3-yl)-N,N-dimethylmethanamine] — 5.1-fold higher, 0.788 µM
- CNCCCC1Oc2ccccc2N(c2cccc(F)c2)S1(=O)=O (stereo not drawn) [Example 20, 3-[1-(3-fluorophenyl)-2,2-dioxido-1H-4,2,1-benzoxathiazin-3-yl]-N-methylpropan-1-amine] — within 1.5-fold, 0.106 µM
- CNCCC[C@@H]1Cc2ccccc2N(c2cccnc2)S1(=O)=O (single isomer, unassigned) [Example 125] — 1.5-fold higher, 0.238 µM
- CNCC[C@@H]1Oc2ccccc2N(c2ccccc2)S1(=O)=O (single isomer, unassigned) [Example 105] — 7.8-fold higher, 1.22 µM

same assay, conditions: MDCK-Net6 cells, 6,000 cells/well; Conc 6000 nM (6 μM); read-out: Procedure B hNET uptake (% inhibition)

Point of comparison: `CCN(C)CCCC1Oc2ccccc2N(c2ccccc2)S1(=O)=O` (stereo not drawn) [Example 81, 3-(2,2-dioxido-1-phenyl-1H-4,2,1-benzoxathiazin-3-yl)-N-ethyl-N-methylpropan-1-amine hydrochloride], inhibition at 6 µM 27%. Against it:
- O=S1(=O)C(CCCNC2CCC2)Oc2ccccc2N1c1ccccc1 (stereo not drawn) [Example 41, N-[3-(2,2-dioxido-1-phenyl-1H-4,2,1-benzoxathiazin-3-yl)propyl]cyclobutanamine] — higher, 50%
- O=S1(=O)C(CCNC2CCC2)Oc2ccccc2N1c1ccccc1 (stereo not drawn) [Example 32, N-[2-(2,2-dioxido-1-phenyl-1H-4,2,1-benzoxathiazin-3-yl)ethyl]cyclobutanamine] — higher, 54%
- CNCCCC1Oc2ccccc2N(c2cnc3ccccc3c2)S1(=O)=O (stereo not drawn) [Example 57, 3-(2,2-dioxido-1-quinolin-3-yl-1H-4,2,1-benzoxathiazin-3-yl)-N-methylpropan-1-amine] — higher, 41%
- O=S1(=O)C(CCCNC2CCCC2)Oc2ccccc2N1c1ccccc1 (stereo not drawn) [Example 42, N-[3-(2,2-dioxido-1-phenyl-1H-4,2,1-benzoxathiazin-3-yl)propyl]cyclopentanamine] — higher, 48%
- CNCCCC1Sc2ccccc2N(c2ccc(OC)cc2)S1(=O)=O (stereo not drawn) [Example 65, 3-[1-(4-methoxyphenyl)-2,2-dioxido-1H-2,4,1-benzodithiazin-3-yl]-N-methylpropan-1-amine hydrochloride] — higher, 58%
- CC(C)NCCCC1Oc2ccccc2N(c2ccccc2)S1(=O)=O (stereo not drawn) [Example 37, 3-(2,2-dioxido-1-phenyl-1H-4,2,1-benzoxathiazin-3-yl)-N-isopropylpropan-1-amine] — lower, 15%
- O=S1(=O)C(CCCNCCCO)Oc2ccccc2N1c1ccccc1 (stereo not drawn) [Example 39, 3-{[3-(2,2-dioxido-1-phenyl-1H-4,2,1-benzoxathiazin-3-yl)propyl]amino}propan-1-ol] — higher, 32%
- CNCCCC1Cc2ccccc2N(c2ccncc2)S1(=O)=O (racemic) [Example 133, 3-(2,2-dioxido-1-pyridin-4-yl-3,4-dihydro-1H-2,1-benzothiazin-3-yl)-N-methylpropan-1-amine] — higher, 35%

— patent publication US20080171737A1 (Wyeth, priority 2006, published 2008)
